Legend:
Format in all cases: functional
UO-31 = test: Cytotoxicity against human UO31 cells assessed as cell growth at 10^-5 M after 48 hrs by SRB assay; conditions: UO-31, 48 h, read-out: Activity
NCI-H23 [1] = test: Growth inhibition of human NCI-H23 cells at 10^-4 M after 48 hrs by SRB assay; parameters: scale not given: the % may be the effect or the level left
NCI-H23 [2] = test: Growth inhibition of human NCI-H23 cells at 10^-5 M after 48 hrs by SRB assay; parameters: scale not given: the % may be the effect or the level left
SK-MEL-5 [3] = test: Growth inhibition of human SK-MEL-5 cells at 10^-5 M after 48 hrs by SRB assay; parameters: scale not given: the % may be the effect or the level left
SK-MEL-5 [4] = test: Growth inhibition of human SK-MEL-5 cells at 10^-4 M after 48 hrs by SRB assay; parameters: scale not given: the % may be the effect or the level left
[5] = Cytotoxicity against human NCI-ADR-RES cells assessed as cell growth at 10^-4 M after 48 hrs by SRB assay; conditions: read-out: Activity
NCI-H23 [6] = test: Growth inhibition of human NCI-H23 cells at 10^-6 M after 48 hrs by SRB assay; parameters: scale not given: the % may be the effect or the level left

Row | Compound | growth at 10 µM (UO-31) [%] | Activity (NCI-H23 [1]) [%] | Activity (NCI-H23 [2]) [%] | Activity (SK-MEL-5 [3]) [%] | Activity (SK-MEL-5 [4]) [%] | growth at 100 µM [5] [%] | Activity (NCI-H23 [6]) [%]
1 | COc1ccc(-c2nn3cc(-c4ccc(O)cc4O)nc3s2)cc1 | -46 | – | – | – | – | – | –
2 | COc1ccc(-c2nn3cc(-c4cccc(N)c4)nc3s2)cc1 | – | 2 | 35 | 1 | -96 | -11 | 84

Source: ChEMBL document CHEMBL2146441, “2,6-Disubstituted imidazo[2,1-b][1,3,4]thiadiazoles: search for anticancer agents” (2012)
